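Where inhibition never reached the appropriate level, the endpoint shown equals the highest concentration tested. Otherwise, values were interpolated linearly from a five-concentration, 48-hour dose response in 96-well plates. GI50: concentration for 50% inhibition of growth.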 Calls of active or inactive are those of the source. No stated cut-off is given here; in the data, active = GI50 up to about 1.1 µM and inactive = higher.
Key:
Assay in all cases: DTP human tumour cell line panel, 48 h
[1] = system: NCI-H460
[2] = system: BT-549
[3] = system: UO-31
[4] = system: MCF7
[5] = system: RXF 393
[6] = system: T47D
[7] = system: KM12
[8] = system: SF-295
[9] = system: K562
[10] = system: SF-539
[11] = system: A498
[12] = system: M14
[13] = system: SNB-75
[14] = system: PC-3
[15] = system: SW-620
[16] = system: Malme-3M
[17] = system: OVCAR-3
[18] = system: TK-10
[19] = system: NCI-H522
[20] = system: HOP-92

SMILES | GI50 [1] | GI50 [2] | GI50 [3] | GI50 [4] | GI50 [5] | GI50 [6] | GI50 [7] | GI50 [8] | GI50 [9] | GI50 [10] | GI50 [11] | GI50 [12] | GI50 [13] | GI50 [14] | GI50 [15] | GI50 [16] | GI50 [17] | GI50 [18] | GI50 [19] | GI50 [20]
O=C1c2ccccc2-c2c1c(-c1ccc(F)cc1)nc1ccc3ccccc3c21 | > 100 µM (inactive) | > 100 µM (inactive) | > 100 µM (inactive) | > 100 µM (inactive) | > 100 µM (inactive) | > 100 µM (inactive) | > 100 µM (inactive) | > 100 µM (inactive) | > 100 µM (inactive) | > 100 µM (inactive) | > 100 µM (inactive) | > 100 µM (inactive) | > 100 µM (inactive) | > 100 µM (inactive) | > 100 µM (inactive) | > 100 µM (inactive) | > 100 µM (inactive) | – | – | –
CCOC(=O)C(C(=O)OCC)C(=O)c1ccccc1C(=O)c1ccccc1 | > 100 µM (inactive) | 33.4 µM (inactive) | > 100 µM (inactive) | > 100 µM (inactive) | > 100 µM (inactive) | > 100 µM (inactive) | > 100 µM (inactive) | > 100 µM (inactive) | > 100 µM (inactive) | > 100 µM (inactive) | > 100 µM (inactive) | > 100 µM (inactive) | > 100 µM (inactive) | – | 19.5 µM (inactive) | > 100 µM (inactive) | 74 µM (inactive) | > 100 µM (inactive) | > 100 µM (inactive) | > 100 µM (inactive)
O=S(=O)(c1ccccc1)C(c1ccc2ccccc2n1)S(=O)(=O)c1ccccc1 | > 100 µM (inactive) | > 100 µM (inactive) | > 100 µM (inactive) | > 100 µM (inactive) | > 100 µM (inactive) | – | > 100 µM (inactive) | > 100 µM (inactive) | > 100 µM (inactive) | > 100 µM (inactive) | > 100 µM (inactive) | – | > 100 µM (inactive) | > 100 µM (inactive) | > 100 µM (inactive) | > 100 µM (inactive) | > 100 µM (inactive) | > 100 µM (inactive) | 90.2 µM (inactive) | > 100 µM (inactive)
CC(=S)NC1C(Oc2ccc3c(C)cc(=O)oc3c2)OC(CO)C(O)C1O (centres undefined) | > 100 µM (inactive) | > 100 µM (inactive) | > 100 µM (inactive) | > 100 µM (inactive) | > 100 µM (inactive) | > 100 µM (inactive) | > 100 µM (inactive) | > 100 µM (inactive) | > 100 µM (inactive) | > 100 µM (inactive) | > 100 µM (inactive) | – | > 100 µM (inactive) | > 100 µM (inactive) | > 100 µM (inactive) | – | > 100 µM (inactive) | > 100 µM (inactive) | – | > 100 µM (inactive)
NC(=O)c1ccc(/N=N/O)nc1 | > 100 µM (inactive) | > 100 µM (inactive) | > 100 µM (inactive) | > 100 µM (inactive) | – | > 100 µM (inactive) | > 100 µM (inactive) | > 100 µM (inactive) | > 100 µM (inactive) | > 100 µM (inactive) | > 100 µM (inactive) | > 100 µM (inactive) | > 100 µM (inactive) | > 100 µM (inactive) | > 100 µM (inactive) | 0.0755 µM (active) | > 100 µM (inactive) | > 100 µM (inactive) | > 100 µM (inactive) | –
CC1N[B@@-](C)(c2ccc(C(F)(F)F)cc2)OC1c1ccccc1 (some centres undefined) | > 100 µM (inactive) | > 100 µM (inactive) | 34.7 µM (inactive) | 59.7 µM (inactive) | – | > 100 µM (inactive) | – | > 100 µM (inactive) | 66.2 µM (inactive) | – | 58.9 µM (inactive) | > 100 µM (inactive) | 32.6 µM (inactive) | 53.3 µM (inactive) | > 100 µM (inactive) | 86.3 µM (inactive) | 57.8 µM (inactive) | > 100 µM (inactive) | – | 20.4 µM (inactive)
COc1ccc(-c2oc3c(CC(=O)O)cccc3c(=O)c2OC)cc1 | – | > 100 µM (inactive) | 0.0809 µM (active) | > 100 µM (inactive) | > 100 µM (inactive) | > 100 µM (inactive) | – | > 100 µM (inactive) | > 100 µM (inactive) | > 100 µM (inactive) | > 100 µM (inactive) | > 100 µM (inactive) | – | > 100 µM (inactive) | – | > 100 µM (inactive) | > 100 µM (inactive) | > 100 µM (inactive) | > 100 µM (inactive) | –
O=S(=O)(Nc1nccs1)c1ccc(Nc2nc(-c3cccs3)nc3ccc(I)cc23)cc1 | 9.73 µM (inactive) | 11.9 µM (inactive) | 17 µM (inactive) | 8.28 µM (inactive) | 36.5 µM (inactive) | 8.43 µM (inactive) | 7.36 µM (inactive) | 11.8 µM (inactive) | 14.8 µM (inactive) | 17.8 µM (inactive) | – | 22.4 µM (inactive) | 36.4 µM (inactive) | 5.12 µM (inactive) | 13 µM (inactive) | 14.3 µM (inactive) | 14.2 µM (inactive) | 9.51 µM (inactive) | 19.4 µM (inactive) | 9.35 µM (inactive)

Source: ChEMBL document CHEMBL1201862, “PubChem BioAssay data set” (2004)
